Data set [1] addresses Tyrosine-protein kinase JAK1 (Homo sapiens, UniProt P23458).
Description: Inhibition of recombinant human GST-tagged JAK1 (866 to 1154 residues) expressed in baculovirus expression system using PolyGT-Biotin as substrate measured after 3 to 20 hrs by HTRF assay
In the next data set the test system is CHO-K1. As to the kind of experiment: cells. Format: ADME, cell-based. Conditions: Cricetulus griseus, CHO-K1, 24 h.
The conditions of data set [2]: buffer, pH 1.2.
Description: Chemical stability of compound at pH 1.2 to 9
The conditions of data set [3]: rat, in vivo, inhaled or intranasal, 3 mg/kg, 24 h.
Description: Free maximum concentration of drug in Sprague-Dawley rat at 3 mg/kg administered intratracheally as nanosuspension measured up to 24 hrs by LC-MS/MS analysis
The conditions of data set [4]: buffer.
Description: Solubility of the compound in sterile water with 0.2% Tween80 using nanosuspension formulation
The conditions of data set [5]: buffer. This is another data set of the same source.
Description: Solubility of the compound in PBS with 0.2% Tween80 using nanosuspension formulation
The nature of data set [6]: in vivo. The conditions noted are these: Wistar, rat, po, 30 mg/kg.
Data set [7] is described as follows: in vivo. The conditions noted are these: Wistar, rat, po, 30 mg/kg. This is another data set of the same source.
Data set [8] can be described thus: in vivo. Conditions: Wistar, rat, inhaled or intranasal.
Description: Half life in Wistar rat at 0.41 mg/kg administered intratracheally as nanosuspension measured up to 24 hrs by LC-MS/MS analysis
Data set [9] in a line: in vivo. The conditions noted are these: Wistar, rat, inhaled or intranasal. The source holds these as a separate data set.
The nature of data set [10]: in vivo. The conditions noted are these: Sprague-Dawley, rat, inhaled or intranasal, 3 mg/kg.
Data set [11] is described as follows: in vitro. The conditions noted are these: PAMPA.
Description: Apparent permeability of compound at 20 uM measured after 5 hrs by PAMPA
A short description of the next data set: physchem. Conditions: octanol/water.
The nature of data set [12]: in vitro. The conditions noted are these: rat, plasma.
Description: Protein binding in rat plasma by LC-MS/MS-based equilibrium dialysis method
A short description of data set [13]: in vitro. Conditions: human, plasma.
Description: Protein binding in human plasma by LC-MS/MS-based equilibrium dialysis method
Data set [14] is described as follows: in vitro. Conditions: rat, microsomes.
Description: Drug metabolism in rat liver microsomes at 5 uM incubated for 30 mins by UPLC-MS/MS analysis
The nature of data set [15]: in vitro. The conditions noted are these: human, microsomes.
Description: Drug metabolism in human liver microsomes at 5 uM incubated for 30 mins by UPLC-MS/MS analysis
The target of another data set is hERG (KCNH2) (Homo sapiens, UniProt Q12809). As to the kind of experiment: in vitro.
Chain of hERG (KCNH2) (Q12809 whole entry): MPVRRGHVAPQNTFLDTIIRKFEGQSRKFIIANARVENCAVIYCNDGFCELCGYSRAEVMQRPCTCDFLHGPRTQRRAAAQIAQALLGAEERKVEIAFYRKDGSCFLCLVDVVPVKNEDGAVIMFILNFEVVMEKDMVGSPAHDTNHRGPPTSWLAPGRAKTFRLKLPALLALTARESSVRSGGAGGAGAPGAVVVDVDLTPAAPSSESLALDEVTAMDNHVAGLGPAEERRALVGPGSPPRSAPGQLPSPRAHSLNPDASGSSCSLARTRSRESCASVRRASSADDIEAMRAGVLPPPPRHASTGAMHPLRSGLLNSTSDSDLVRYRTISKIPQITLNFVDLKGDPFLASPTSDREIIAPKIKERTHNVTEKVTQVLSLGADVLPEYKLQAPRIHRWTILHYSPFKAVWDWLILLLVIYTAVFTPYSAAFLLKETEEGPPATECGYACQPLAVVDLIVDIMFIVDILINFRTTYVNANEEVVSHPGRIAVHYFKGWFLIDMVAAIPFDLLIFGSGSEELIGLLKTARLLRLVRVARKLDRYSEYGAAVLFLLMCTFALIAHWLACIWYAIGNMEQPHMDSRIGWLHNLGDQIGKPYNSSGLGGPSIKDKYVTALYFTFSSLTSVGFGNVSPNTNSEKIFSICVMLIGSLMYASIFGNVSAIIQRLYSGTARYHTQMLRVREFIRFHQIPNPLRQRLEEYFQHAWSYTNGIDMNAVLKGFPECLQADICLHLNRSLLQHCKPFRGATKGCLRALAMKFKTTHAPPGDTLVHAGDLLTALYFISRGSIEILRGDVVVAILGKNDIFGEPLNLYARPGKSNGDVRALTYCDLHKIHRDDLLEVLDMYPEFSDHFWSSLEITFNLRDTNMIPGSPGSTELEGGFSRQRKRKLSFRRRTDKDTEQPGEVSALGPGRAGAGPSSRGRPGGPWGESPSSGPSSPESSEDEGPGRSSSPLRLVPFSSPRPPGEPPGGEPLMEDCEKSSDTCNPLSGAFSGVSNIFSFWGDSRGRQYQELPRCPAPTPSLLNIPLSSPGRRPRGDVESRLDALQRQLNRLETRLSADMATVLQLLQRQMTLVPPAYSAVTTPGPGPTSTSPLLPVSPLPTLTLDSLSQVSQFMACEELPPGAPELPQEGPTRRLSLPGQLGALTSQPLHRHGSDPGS
A further data set has as its target NaV1.5 (Homo sapiens, UniProt Q14524). As to the kind of experiment: in vitro.
Another data set deals with Cav1.2 (Homo sapiens, UniProt Q13936). As to the kind of experiment: in vitro.

Data on ten compounds can be found in ChEMBL document CHEMBL4414617, “Identification of 2-Imidazopyridine and 2-Aminopyridone Purinones as Potent Pan-Janus Kinase (JAK) Inhibitors for the Inhaled Treatment of Respiratory Diseases” (J Med Chem, 2019).

By IC50 is commonly meant the concentration needed to halve the response being measured. Low values mean greater potency in that assay, high ones weaker potency in that assay. The term AUC(0-inf) denotes the area under the concentration-time curve extrapolated to infinity. A high value points to high exposure. As a reminder, the Cmax is the maximum level reached in the sampled fluid or tissue. Broadly, the half-life is how long it takes for the measured level to halve. A high value points to slow loss. For orientation: AUC means the area under the concentration-time curve, a measure of exposure. A high value points to more exposure. By Papp is commonly meant a coefficient for how fast a substance crosses the barrier. High values mean fast passage, low ones slow passage. As a reminder, the logD is lipophilicity at a set pH, counting ionised and neutral species. The term fraction unbound denotes free concentration divided by total concentration. A lower fraction unbound goes with extensive binding. What is called inhibition is the percentage by which the read-out fell short of the control.

Chain of Tyrosine-protein kinase JAK1 (P23458 whole entry): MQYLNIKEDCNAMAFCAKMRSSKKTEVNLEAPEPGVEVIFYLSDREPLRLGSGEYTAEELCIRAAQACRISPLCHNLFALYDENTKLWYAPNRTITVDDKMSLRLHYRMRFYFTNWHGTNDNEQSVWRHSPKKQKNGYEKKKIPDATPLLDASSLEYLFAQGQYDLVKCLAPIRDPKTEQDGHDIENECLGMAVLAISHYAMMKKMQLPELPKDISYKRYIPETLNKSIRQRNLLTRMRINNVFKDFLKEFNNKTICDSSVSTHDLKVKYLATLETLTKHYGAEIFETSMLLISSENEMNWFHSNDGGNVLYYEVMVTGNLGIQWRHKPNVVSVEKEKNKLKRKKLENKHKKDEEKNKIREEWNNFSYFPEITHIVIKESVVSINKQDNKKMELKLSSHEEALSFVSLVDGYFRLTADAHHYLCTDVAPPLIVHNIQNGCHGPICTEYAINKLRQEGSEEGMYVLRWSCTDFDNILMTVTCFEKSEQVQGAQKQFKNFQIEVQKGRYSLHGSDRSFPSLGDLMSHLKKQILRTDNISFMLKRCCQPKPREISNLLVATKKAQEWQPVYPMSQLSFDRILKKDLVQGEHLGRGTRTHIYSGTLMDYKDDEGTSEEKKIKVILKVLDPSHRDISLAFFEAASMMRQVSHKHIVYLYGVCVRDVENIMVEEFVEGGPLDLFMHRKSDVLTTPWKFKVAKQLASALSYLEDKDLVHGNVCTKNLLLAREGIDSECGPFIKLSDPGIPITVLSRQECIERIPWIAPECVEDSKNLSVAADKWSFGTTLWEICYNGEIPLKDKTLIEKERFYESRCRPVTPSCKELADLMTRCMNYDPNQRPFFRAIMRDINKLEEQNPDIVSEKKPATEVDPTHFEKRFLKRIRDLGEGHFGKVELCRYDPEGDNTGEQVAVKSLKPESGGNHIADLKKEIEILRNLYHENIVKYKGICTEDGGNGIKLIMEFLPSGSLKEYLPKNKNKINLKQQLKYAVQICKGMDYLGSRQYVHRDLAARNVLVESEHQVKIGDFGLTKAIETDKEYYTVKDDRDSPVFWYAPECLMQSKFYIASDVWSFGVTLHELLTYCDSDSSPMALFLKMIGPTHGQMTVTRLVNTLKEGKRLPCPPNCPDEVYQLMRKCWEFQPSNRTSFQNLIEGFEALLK
Chain of NaV1.5 (Q14524 whole entry): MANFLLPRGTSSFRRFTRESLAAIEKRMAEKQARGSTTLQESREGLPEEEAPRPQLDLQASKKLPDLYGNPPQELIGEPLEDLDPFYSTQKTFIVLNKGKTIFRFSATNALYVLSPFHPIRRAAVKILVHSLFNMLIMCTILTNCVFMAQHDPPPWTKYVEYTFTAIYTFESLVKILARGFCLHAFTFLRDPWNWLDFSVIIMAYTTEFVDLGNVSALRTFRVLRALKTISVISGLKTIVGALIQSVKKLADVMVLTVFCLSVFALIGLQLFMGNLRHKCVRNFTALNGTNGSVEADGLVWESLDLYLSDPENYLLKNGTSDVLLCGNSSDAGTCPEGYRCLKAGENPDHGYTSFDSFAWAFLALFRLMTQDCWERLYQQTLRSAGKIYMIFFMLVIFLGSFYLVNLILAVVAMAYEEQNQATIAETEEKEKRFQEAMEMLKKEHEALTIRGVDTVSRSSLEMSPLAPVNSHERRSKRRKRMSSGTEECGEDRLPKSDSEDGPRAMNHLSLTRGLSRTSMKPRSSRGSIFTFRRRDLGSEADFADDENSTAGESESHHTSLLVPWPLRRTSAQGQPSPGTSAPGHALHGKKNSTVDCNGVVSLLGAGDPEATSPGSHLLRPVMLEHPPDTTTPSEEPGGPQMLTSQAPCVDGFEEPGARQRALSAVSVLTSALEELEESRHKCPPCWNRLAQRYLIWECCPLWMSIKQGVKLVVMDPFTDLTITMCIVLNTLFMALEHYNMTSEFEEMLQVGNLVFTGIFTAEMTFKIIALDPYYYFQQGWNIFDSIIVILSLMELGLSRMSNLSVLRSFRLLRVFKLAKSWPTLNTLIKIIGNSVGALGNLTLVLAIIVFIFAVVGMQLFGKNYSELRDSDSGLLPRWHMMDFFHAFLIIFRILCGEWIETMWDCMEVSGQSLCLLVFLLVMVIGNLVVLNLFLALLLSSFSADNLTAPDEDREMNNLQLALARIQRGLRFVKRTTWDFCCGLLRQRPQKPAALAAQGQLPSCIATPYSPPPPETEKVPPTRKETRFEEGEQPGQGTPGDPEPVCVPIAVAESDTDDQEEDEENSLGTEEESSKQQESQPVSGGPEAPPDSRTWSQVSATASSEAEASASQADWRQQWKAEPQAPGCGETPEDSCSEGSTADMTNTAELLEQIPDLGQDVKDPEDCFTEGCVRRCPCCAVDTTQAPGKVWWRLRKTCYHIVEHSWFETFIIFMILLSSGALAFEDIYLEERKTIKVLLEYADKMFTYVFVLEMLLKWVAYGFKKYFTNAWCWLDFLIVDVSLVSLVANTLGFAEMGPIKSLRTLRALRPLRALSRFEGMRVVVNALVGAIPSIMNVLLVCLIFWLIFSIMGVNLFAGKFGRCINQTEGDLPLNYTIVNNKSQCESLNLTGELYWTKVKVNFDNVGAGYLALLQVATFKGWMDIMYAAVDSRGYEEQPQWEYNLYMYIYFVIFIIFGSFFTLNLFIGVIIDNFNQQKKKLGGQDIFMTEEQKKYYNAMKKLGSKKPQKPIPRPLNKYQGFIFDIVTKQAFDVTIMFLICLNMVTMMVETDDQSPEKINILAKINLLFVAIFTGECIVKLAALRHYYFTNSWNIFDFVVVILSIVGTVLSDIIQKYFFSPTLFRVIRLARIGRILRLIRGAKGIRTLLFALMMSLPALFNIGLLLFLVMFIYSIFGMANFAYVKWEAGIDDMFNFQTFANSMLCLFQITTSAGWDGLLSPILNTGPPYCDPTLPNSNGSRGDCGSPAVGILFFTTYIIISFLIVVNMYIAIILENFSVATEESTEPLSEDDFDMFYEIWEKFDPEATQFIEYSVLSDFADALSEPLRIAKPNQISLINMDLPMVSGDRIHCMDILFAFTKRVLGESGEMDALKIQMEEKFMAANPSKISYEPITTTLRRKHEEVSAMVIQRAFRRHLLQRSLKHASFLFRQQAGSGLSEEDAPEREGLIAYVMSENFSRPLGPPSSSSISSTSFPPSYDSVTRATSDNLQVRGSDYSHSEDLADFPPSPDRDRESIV
Description for CHO-K1: Cytotoxicity against CHOK1 cells assessed as reduction in ATP levels incubated for 24 hrs by ATPlite luminescence assay
Description for Cav1.2: Inhibition of Cav1.2 (unknown origin) at 10 uM relative to control
Description for NaV1.5: Inhibition of NaV1.5 (unknown origin) at 10 uM relative to control
Description for hERG (KCNH2): Inhibition of human ERG at 10 uM relative to control
Description for physchem: Lipophilicity, log D of compound

With `O=c1[nH]c2cnc(-c3cnc4ccc(F)cn34)nc2n1[C@@H]1CCOc2c(F)cccc21`, the values for the IC50 (in data set [1]; with CHO-K1) were 0.024 µM and 4 µM, respectively.

Turning to `C[C@H](c1ccc(F)cn1)n1c(=O)[nH]c2cnc(Nc3ccc[nH]c3=O)nc21`, in the data set with CHO-K1, the IC50 is more than 100 µM.

`N#CC[C@H]1CC[C@H](n2c(=O)[nH]c3cnc(Nc4ccc[nH]c4=O)nc32)CC1` returned an IC50 in the data set with CHO-K1 of more than 100 µM. In data set [2], the Stability result is on record as “Stable”. Further, in data set [3], the fCmax is 57 ng/mL. Further, the solubility entry in [4] and in data set [5] was “Soluble” each time. Also, the AUC(0-inf) at 24 h in the data set “in vivo [6]” stood at 32 ng·h/mL. Besides, the Cmax at 24 h in the data set “in vivo [7]” was determined as 7 ng/mL. In the data set “in vivo [8]”, this compound gave a half-life at 24 h of 16.3 h. Besides, the AUC at 24 h worked out at 118 ng·h/mL in “in vivo [9]” and 406 ng·h/mL in the data set “in vivo [10]”. Besides, in the data set “in vitro [11]”, the Papp at 5 h, 20 µM is 0.61 ×10⁻⁶ cm/s. This compound gave a logD in “physchem” of 2.1. Also, the fraction unbound in “in vitro [12]” was 0.21; in “in vitro [13]” it was 0.17. In addition, the results for the metabolised at 0.5 h, 5 µM in the data set “in vitro [14]” and in the data set “in vitro [15]” were 17% and 21%, respectively. Besides, the inhibition at 10 µM at hERG (KCNH2), at NaV1.5 and against Cav1.2 was less than 15% each time.

Compound `O=c1[nH]c2cnc(-c3cnc4ccc(F)cn34)nc2n1[C@H]1CC[C@H](O)CC1` registered an IC50 with CHO-K1 of 100 µM.

With `C[C@H](c1ncc(F)cn1)n1c(=O)[nH]c2cnc(-c3cnc4ccc(F)cn34)nc21`, the IC50 stood at 0.0035 µM in data set [1] and 4.3 µM in the data set with CHO-K1.

Turning to `O=c1[nH]cc(Cl)cc1Nc1ncc2[nH]c(=O)n([C@@H]3CCOc4c(F)cccc43)c2n1`, in the data set on CHO-K1, the midpoint of inhibition, the IC50, lay at 36 µM.

As for `C[C@H](c1ccc(F)cn1)n1c(=O)[nH]c2cnc(Nc3cc(F)c[nH]c3=O)nc21`, in the data set with CHO-K1, the IC50 was more than 100 µM.

`O=c1[nH]cc(F)cc1Nc1ncc2[nH]c(=O)n([C@@H]3CCOc4c(F)cccc43)c2n1` yielded an IC50 in the data set with CHO-K1 of more than 100 µM.

Turning to `Cc1c[nH]c(=O)c(Nc2ncc3[nH]c(=O)n([C@@H]4CCOc5c(F)cccc54)c3n2)c1`, in the data set on CHO-K1, inhibition was half-maximal at 51 µM (IC50).

In the case of `C[C@]1(O)CC[C@H](n2c(=O)[nH]c3cnc(-c4cnc5ccc(F)cn45)nc32)CC1`, the IC50 came out at 0.079 µM in data set [1] and 16 µM in the data set with CHO-K1.
